{
  "source": "patent EP4653432A1",
  "about": "“AUTOPHAGY INDUCING COMPOUNDS AND USES THEREOF IN THE PREVENTION OR THERAPY OF DISEASES” (Samsara Therapeutics Inc., priority 2024, dated 2025)",
  "system": "U2OS cell line stably expressing RFP-eGFP-hLC3b (a tandem reporter cell line)",
  "test": "Tandem reporter assay (assay to assess autophagic flux)",
  "format": "cell-based, Human",
  "details": "result in words; at different concentrations",
  "method": "Selected compounds of this invention were also assessed for their ability to stimulate autophagy using a U2OS cell line stabling expressing RFP-eGFP-hLC3b (a tandem reporter cell line). During the process of autophagy, the cargo to be degraded is first enveloped by organelles called autophagosomes. These autophagosomes then fuse with lysosomes, causing them to become acidified and their digestive enzymes to become activated. The term \"autophagic flux\" is used to represent the dynamic process of autophagy: autophagic flux refers to the whole process of autophagy, including autophagosome formation, maturation, fusion with lysosomes, subsequent breakdown, and the release of macromolecules back into the cytosol (Zhang XJ, Chen S, Huang KX, Le WD. Why should autophagic flux be assessed? Acta Pharmacol Sin. 2013 May; 34(5): 595-9. doi: 10.1038/aps.2012.184. Epub 2013 Mar 11). Compounds that stimulate autophagic flux stimulate the dynamic process of autophagy (the whole process of autophagy). […] Using a fluorescent microscope, the number of autophagosomes and autolysosomes can be counted, allowing for the monitoring of both the induction of autophagy (total puncta count) and the rate of autophagic flux (ratio of red-only to red-and-green puncta). The influence of small molecules on autophagy induction and flux can be assessed using this system by comparison to a non-treated control. […]",
  "note": "Counter-ions that a name gives are not always drawn.",
  "data": [
    {"smiles": "CC(C)c1ccc(-n2cc(C#N)c(-c3nc(C(=O)N(C(C)C)C4CCNCC4)cs3)n2)nc1.Cl", "note": "[Compound E, N-isopropyl-N-4-piperidyl-2-[4-cyano-1-(5-isopropyl-2-pyridyl)-3-pyrazolyl]-1,3-thiazole-4-carboxamide hydrochloride]", "values": [
      {"measurement": "number of RFP-only puncta (autolysosomes) relative to a DMSO-treated control (non-treated control)", "value": "Particularly good results"}
    ]},
    {"smiles": "CC(C)N(C(=O)c1csc(-c2cnc3ccccn23)n1)[C@@H]1CCNC1", "note": "[SLN5-X-0978, (R)-2-(imidazo[1,2-a]pyridin-3-yl)-N-Isopropyl-N-(pyrrolidin-3-yl) thiazole-4-carboxamide hydrochloride]", "values": [
      {"measurement": "number of RFP-only puncta (autolysosomes) relative to a DMSO-treated control (non-treated control)", "value": "Particularly good results"}
    ]}
  ]
}
